# Assay results reported in publication PMC9424909, “Rutin alleviated acrolein-induced cytotoxicity in Caco-2 and GES-1 cells by forming a cyclic hemiacetal product” (Frontiers in Nutrition, 2022).
# Columns and labels:
# [1] = elimination of ACR by rutin in PBS (DNPH derivatization, HPLC); conditions: for amount of ACR reduced compared with the initial content / content of ACR (residual) / content of residual ACR: 2 h; for content of ACR (residual): rutin/ACR 1/1, initial content 200 μmol
# Experimental: In the present study, three variables were taken into consideration, namely temperature (40–100°C), reaction duration (0.5–8 h), and molar ratio of rutin to ACR (from 1/2 to 4/1), and the remaining level of ACR was determined. A mixture of rutin, ACR, and 20 mL of PBS was prepared in a 50 mL three-necked flask and reacted under light-proof conditions. The different variables were studied separately while keeping other conditions constant as follows: temperature of 80°C, reaction time of 2 h, and the molar ratio of rutin/ACR of 1/1. At the end of each reaction, ACR was derivatized with DNPH, and its content was determined as below.
# The stock solution equivalent to ACR concentration of […] was prepared by dissolving 10.7 mg of ACR-DNPH standard with 25 mL of acetonitrile (ACN). And the ACR-DNPH standard curve (2 to 100 μg/mL) was established by serial dilutions of the stock solution. The HPLC conditions were as below. An Agilent 1,260 Infinity II HPLC system (Agilent Technologies, Palo Alto, CA) equipped with a DAD and a Zorbax SB-C18 column (250 × 4.6 mm; 5 μm; Agilent Technologies) was utilized for the determination of ACR-DNPH. The separation was conducted under isocratic conditions by introducing 50% A (water) and 50% B (ACN) at a flow rate of 1.0 mL/min for 15 min. The temperature was 35°C, the injection volume was 20 μL, and the detection wavelength was set at 365 nm. According to the retention time as well as the peak area, the standard curve of ACR-DNPH derivates was obtained.
# DNPH was recrystallized as the followings before use: excess DNPH was added into 200 mL of methanol (MeOH) heating for 1 h, and the supernatant was collected and further heated at 60°C to remove 95% of the solvent; the crystals were then washed twice with 100 mL of MeOH, transferred to another clean beaker, and co-heated with 200 mL of MeOH; and the resulting crystal was stored under seal. The 0.1 M DNPH solution was prepared by dissolving 5.0548 g of the purified DNPH in 250 mL of ACN containing 5 mL of 10% phosphoric acid solution.
# Derivatization of ACR with DNPH was conducted in accordance with Reilly et al. ([36]). In short, one milliliter of each sample was incubated with 1 mL of diluted DNPH solution (0.01 M) for 40 min at 40°C, followed by extraction with 10 mL of MeOH/water (75: 25, v/v). After centrifugation (6,000 rpm, 10 min), the supernatant was collected and was further extracted with 10 mL of dichloromethane to obtain the DNPH derivatives. Prior to HPLC analysis as above, the DNPH derivatives were re-dissolved in 1 mL of HPLC grade ACN and passed through a 0.45 μm filter (Bie & Berntsen, Rødovre, Denmark).
# [2] = test system: Caco-2 cells; assay: cell survival, CCK-8 assay; format: cell-based, human; conditions: for cell viability (viable cell number): incubation 24 h
# Experimental: (§1) The Caco-2 cell line and GES-1 cell line were obtained from iCell Bioscience (Shanghai, China). As described by Chai et al. ([40]) with a bit modification, the Caco-2 cells were cultured within a medium composed of DMEM supplemented with 1% (v/v) NEAA, 10% (v/v) FBS, and penicillin and streptomycin (100 U/mL). GES-1 cells were cultivated according to Xu et al. ([41]) with slight modifications as follows: DMEM medium including 1% (v/v) NEAA, 10% (v/v) FBS, and penicillin and streptomycin (100 U/mL). Cells were all maintained in a humidified incubator containing 5% CO2 and 95% air at 37°C.
# (§2) The effects of ACR and RAC on cell survival (both Caco-2 and GES-1 cells) were measured by the CCK-8 assay ([41]). Briefly, cells (1 × 10^4 cells/well) were seeded into a 96-well plate and cultivated overnight. […] After cells were rinsed twice with PBS and resuspended in 100 μL of DMEM supplemented with 10% FBS, 10 μL of CCK-8 solution was added into each well and the plate was maintained for 1 h in the incubator. The plate was read at 450 nm on a microplate reader (BioTek, Epoch 2, USA), and all experiments were performed thrice. Cell viability was expressed as a percentage of the control group as shown below:
# (§3) Cell viability (%) = A sample/A control × 100%
# (§4) Where A sample was the absorbance (Abs) of the cells incubated with different concentrations of sample solutions, and A control was the Abs of the cells incubated without sample solution.
# [3] = test system: GES-1 cells; assay: cell survival, CCK-8 assay; format: cell-based, human; conditions: for cell viability (viable cell number): incubation 24 h
# Experimental: as §1, §2, §3, §4
# [4] = test system: Caco-2 cells; assay: apoptosis assay, Annexin-V FITC/PI flow cytometry; format: cell-based, human; conditions: for apoptotic cells / number of viable cells: 24 h
# Experimental: as §1
# (§5) Cell apoptosis assay was conducted in refer to Abas et al. ([42]) with modifications. In short, cells at a density of 1 × 10^4 cells/well were seeded in 96-well plates and incubated overnight, followed by exposure to different concentrations of ACR and RAC for another 24 h. After that, cells were rinsed twice with PBS, resuspended in 200 μL of Annexin-binding buffer, and finally stained with Annexin-V FITC and PI (5 μL each) for 10 min at 37°C in darkness. After adding 400 μL of Annexin-binding buffer, the signal intensity was measured using a FACSCalibur (Becton Dickinson, CA, USA) flow cytometry within 1 h, and data was analyzed with FlowJo software (Ashland, OR, USA).
# [5] = test system: GES-1 cells; assay: apoptosis assay, Annexin-V FITC/PI flow cytometry; format: cell-based, human; conditions: 24 h
# Experimental: as §1, §5
# [6] = test system: Caco-2 cells; assay: JC-1 staining, mitochondrial membrane potential (MMP); format: cell-based, human; conditions: 24 h
# Experimental: as §1
# (§6) After incubation with different concentrations of samples, the changes of MMP in Caco-2 and GES-1 cells were measured in accordance with Liu et al., with slight modifications ([43]). In brief, cells (1 × 10^4 cells/well) were exposed to different concentrations of ACR and RAC for 24 h, respectively. Then 500 μL of JC-1 staining solution was added into each well and the plate was further incubated at 37°C for 15 min. Cells were then rinsed twice with 1 mL of staining buffer and resuspended with 500 μL of staining buffer prior to MMP determination in the flow cytometry.
# [7] = test system: GES-1 cells; assay: as above; format: cell-based, human; conditions: 24 h
# Experimental: as §1, §6
smiles,measurement,setting,value
"C[C@@H]1O[C@@H](OC[C@H]2O[C@@H](Oc3c(-c4ccc(O)c(O)c4)oc4cc(O)cc(O)c4c3=O)[C@H](O)[C@@H](O)[C@@H]2O)[C@H](O)[C@H](O)[C@H]1O [rutin, quercetin 3-O-rhamnosylglucoside]",amount of ACR reduced compared with the initial content,"[1]; 40°C, rutin/ACR 1/1",43.36%
same,content of ACR (residual),[1]; 40°C,113.28 µmol
same,amount of ACR reduced compared with the initial content,"[1]; 60°C, rutin/ACR 1/1",82.05%
same,content of ACR (residual),[1]; 60°C,35.9 µmol
same,amount of ACR reduced compared with the initial content,"[1]; 80°C, rutin/ACR 1/1",92.56%
same,content of ACR (residual),[1]; 80°C,14.88 µmol
same,amount of ACR reduced compared with the initial content,"[1]; 90°C, rutin/ACR 1/1",96.09%
same,content of ACR (residual),[1]; 90°C,7.83 µmol
same,amount of ACR reduced compared with the initial content,"[1]; 100°C, rutin/ACR 1/1",98.20%
same,content of ACR (residual),[1]; 100°C,3.60 µmol
same,ACR removed,"[1]; after 8 h of reaction, 80°C, rutin/ACR 1/1",more than 94%
same,content of residual ACR,"[1]; molar ratio rutin/ACR 1/2, 80°C",18.54 µmol
same,content of residual ACR,"[1]; molar ratio rutin/ACR 4/1, 80°C",6.69 µmol
"C=CC=O [ACR, Acrolein]",cell viability (viable cell number),"[2]; Caco-2, 20 μM",31.83%
same,cell viability (viable cell number),"[2]; Caco-2, 140 μM",6.97%
same,IC50,"[2]; Caco-2, CCK-8, read-out: IC50 (cytotoxicity)",< 20 µM
same,cell viability (viable cell number),"[3]; GES-1, 20 μM",49.57%
same,cell viability (viable cell number),"[3]; GES-1, 140 μM",11.22%
same,IC50,"[3]; GES-1, CCK-8, read-out: IC50 (cytotoxicity)",< 20 µM
same,decrease of viable cell number,"[3]; GES-1, up to 140 μM, 24 h as printed",88.78%
same,apoptotic cells,"[4]; Caco-2, 20 μM",12.19%
same,number of viable cells,"[4]; Caco-2, 20 μM",87.5%
same,apoptotic cells,"[4]; Caco-2, 40 μM",28.59%
same,number of viable cells,"[4]; Caco-2, 40 μM",71.3%
same,"apoptotic rate, times higher than that of the same concentration of RAC","[4]; Caco-2, 60 μM",5.5 times
same,apoptotic cells,"[4]; Caco-2, 60 μM",59.50%
same,number of viable cells,"[4]; Caco-2, 60 μM",40.0%
same,apoptotic rate,"[5]; GES-1, 20 μM",16.28%
same,apoptotic rate,"[5]; GES-1, 60 μM",68.10%
same,ratio of red/green fluorescence intensity,"[6]; Caco-2, 20 μM",5.32
same,ratio of red/green fluorescence intensity,"[6]; Caco-2, 20 μM, listed as Acrolein",5.32 ± 0.17
same,ratio of red/green fluorescence intensity,"[6]; Caco-2, 40 μM",2.88 ± 0.09
same,ratio of red/green fluorescence intensity,"[6]; Caco-2, 60 μM",1.97
same,ratio of red/green fluorescence intensity,"[6]; Caco-2, 60 μM, listed as Acrolein",1.97 ± 0.06
same,ratio of red/green fluorescence intensity,"[7]; GES-1, 20 μM",5.68
same,ratio of red/green fluorescence intensity,"[7]; GES-1, 20 μM, listed as Acrolein",5.68 ± 0.24
same,ratio of red/green fluorescence intensity,"[7]; GES-1, 40 μM",4.29 ± 0.17
same,ratio of red/green fluorescence intensity,"[7]; GES-1, 60 μM",2.13
same,ratio of red/green fluorescence intensity,"[7]; GES-1, 60 μM, listed as Acrolein",2.13 ± 0.10
